According to BindingDB's records for doi:10.1124/jpet.108.143271 (Bristol-Myers Squibb, 2008):
Substitutions are numbered along the chain they refer to.

Columns and labels:
[1] = biological target: T1, Peroxisome proliferator-activated receptor alpha (Homo sapiens, UniProt Q07869); test: PPAR alpha Fluorescence Polarization Assay; details: pH 8; 22 °C
T1 sequence (Q07869 whole entry): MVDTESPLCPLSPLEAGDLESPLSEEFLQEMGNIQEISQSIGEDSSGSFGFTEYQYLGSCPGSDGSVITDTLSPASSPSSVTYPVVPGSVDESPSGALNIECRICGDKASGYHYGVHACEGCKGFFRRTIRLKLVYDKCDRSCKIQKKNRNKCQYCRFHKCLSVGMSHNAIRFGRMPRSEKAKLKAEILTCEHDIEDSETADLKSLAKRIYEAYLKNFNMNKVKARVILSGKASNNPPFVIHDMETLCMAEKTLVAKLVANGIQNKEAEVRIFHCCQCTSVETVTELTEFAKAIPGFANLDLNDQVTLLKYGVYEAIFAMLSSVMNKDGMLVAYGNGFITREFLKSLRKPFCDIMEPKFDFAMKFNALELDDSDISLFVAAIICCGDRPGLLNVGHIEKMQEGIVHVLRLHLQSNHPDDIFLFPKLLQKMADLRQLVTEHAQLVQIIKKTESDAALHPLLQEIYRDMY

[2] = biological target: T2, Peroxisome proliferator-activated receptor alpha (Mesocricetus auratus, UniProt Q7TNH1)
T2 sequence (Q7TNH1 whole entry): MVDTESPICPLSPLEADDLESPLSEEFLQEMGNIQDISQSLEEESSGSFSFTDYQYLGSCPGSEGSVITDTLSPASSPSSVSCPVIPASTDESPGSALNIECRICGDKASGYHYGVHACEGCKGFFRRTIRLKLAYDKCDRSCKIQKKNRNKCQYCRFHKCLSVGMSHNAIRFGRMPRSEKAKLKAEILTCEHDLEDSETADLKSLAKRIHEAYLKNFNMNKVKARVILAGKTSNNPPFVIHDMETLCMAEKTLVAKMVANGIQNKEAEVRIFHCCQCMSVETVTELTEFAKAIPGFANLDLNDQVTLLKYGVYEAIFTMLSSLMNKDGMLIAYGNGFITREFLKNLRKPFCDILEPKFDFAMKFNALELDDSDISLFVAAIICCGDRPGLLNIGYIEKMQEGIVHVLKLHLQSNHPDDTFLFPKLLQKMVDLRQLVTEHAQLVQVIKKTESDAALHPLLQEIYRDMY

[3] = biological target: T3, Peroxisome proliferator-activated receptor delta (Homo sapiens, UniProt Q03181)
T3 sequence (Q03181 whole entry): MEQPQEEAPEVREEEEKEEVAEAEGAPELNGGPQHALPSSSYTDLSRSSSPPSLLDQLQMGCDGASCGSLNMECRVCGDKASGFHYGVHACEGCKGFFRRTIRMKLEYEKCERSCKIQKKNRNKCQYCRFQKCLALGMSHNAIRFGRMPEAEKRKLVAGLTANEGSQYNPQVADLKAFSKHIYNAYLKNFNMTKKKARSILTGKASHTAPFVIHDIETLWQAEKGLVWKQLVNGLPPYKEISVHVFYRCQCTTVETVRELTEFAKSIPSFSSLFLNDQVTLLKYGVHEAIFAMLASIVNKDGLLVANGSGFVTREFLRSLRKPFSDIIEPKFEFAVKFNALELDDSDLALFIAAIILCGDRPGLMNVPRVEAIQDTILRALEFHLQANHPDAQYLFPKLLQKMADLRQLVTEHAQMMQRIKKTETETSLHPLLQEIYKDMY

[4] = biological target: T4, Peroxisome proliferator-activated receptor alpha (Mus musculus, UniProt P23204)
T4 sequence (P23204 whole entry): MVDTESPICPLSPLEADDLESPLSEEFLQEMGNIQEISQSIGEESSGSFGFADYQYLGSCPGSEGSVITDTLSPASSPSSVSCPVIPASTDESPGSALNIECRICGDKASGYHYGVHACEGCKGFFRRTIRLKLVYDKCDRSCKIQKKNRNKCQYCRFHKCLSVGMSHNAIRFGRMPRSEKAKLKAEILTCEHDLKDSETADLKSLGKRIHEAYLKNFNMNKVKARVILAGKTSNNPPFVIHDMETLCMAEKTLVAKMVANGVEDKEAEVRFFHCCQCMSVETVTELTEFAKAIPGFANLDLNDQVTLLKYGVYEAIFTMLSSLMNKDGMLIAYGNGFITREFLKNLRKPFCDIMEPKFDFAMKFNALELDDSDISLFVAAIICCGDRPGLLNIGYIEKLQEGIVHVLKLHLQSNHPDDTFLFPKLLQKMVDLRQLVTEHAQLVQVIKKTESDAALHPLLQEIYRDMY

[5] = biological target: T5, Peroxisome proliferator-activated receptor alpha (Rattus norvegicus, UniProt P37230)
T5 sequence (P37230 whole entry): T4 sequence (P23204 whole entry) with I41L, G50S, V85A, I86V, A88T, S96N, V135A, G207A, D265N

[6] = biological target: T6, Peroxisome proliferator-activated receptor gamma (Homo sapiens, UniProt P37231); test: PPAR gamma Fluorescence Polarization Assay; details: pH 8; 22 °C
T6 sequence (P37231 whole entry): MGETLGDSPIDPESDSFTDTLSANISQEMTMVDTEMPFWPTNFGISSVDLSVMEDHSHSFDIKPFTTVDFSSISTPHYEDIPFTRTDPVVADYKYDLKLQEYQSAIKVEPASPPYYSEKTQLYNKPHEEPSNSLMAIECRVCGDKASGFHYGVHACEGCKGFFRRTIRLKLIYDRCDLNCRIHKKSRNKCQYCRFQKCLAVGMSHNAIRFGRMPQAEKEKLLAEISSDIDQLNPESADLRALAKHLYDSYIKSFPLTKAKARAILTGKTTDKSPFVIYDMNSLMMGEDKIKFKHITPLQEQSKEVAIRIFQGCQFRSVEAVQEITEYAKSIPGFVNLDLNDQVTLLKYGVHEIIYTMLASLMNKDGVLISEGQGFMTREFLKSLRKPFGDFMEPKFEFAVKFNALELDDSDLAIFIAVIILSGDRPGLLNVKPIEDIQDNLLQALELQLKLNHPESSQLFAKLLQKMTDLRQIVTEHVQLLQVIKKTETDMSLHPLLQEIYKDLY

SMILES | IC50 [1] | EC50 [2] | EC50 [3] | EC50 [4] | EC50 [5] | IC50 [6] | EC50 [1]
COC(=O)N(CC(=O)O)Cc1cc(OCc2nc(-c3ccc(Cl)cc3)oc2C)ccc1F [2-{[(5-{[2-(4-chlorophenyl)-5-methyl-1,3-oxazol-4-yl]methoxy}-2-fluorophenyl)methyl](methoxycarbonyl)amino}acetic acid] | 0.097 µM | 0.178 µM | > 25 µM | 0.145 µM | 0.123 µM | > 15 µM | –
CC(Oc1ccc(Oc2ccc(Cl)cc2)cc1)C(=O)O (configuration not stated) [Clofop] | > 98.4 µM | 28.7 µM | – | 18.5 µM | 17.7 µM | – | 11.6 µM
COC(=O)N(CC(=O)O)Cc1cccc(OCc2nc(-c3ccc(Cl)cc3)oc2C)c1 [2-{[(3-{[2-(4-chlorophenyl)-5-methyl-1,3-oxazol-4-yl]methoxy}phenyl)methyl](methoxycarbonyl)amino}acetic acid] | – | – | – | – | 0.317 µM | – | –
